35 compounds from US20170275302A1, “INHIBITORS OF THE RENAL OUTER MEDULLARY POTASSIUM CHANNEL” (Merck Sharp & Dohme Corp., priority 2014, published 2017) can be followed below.

The assay concerns the target T1, hROMK (hKir1.1) (Homo sapiens, UniProt P48048).
T1 construct: expressed in transfected cells
T1 sequence (P48048 1-391): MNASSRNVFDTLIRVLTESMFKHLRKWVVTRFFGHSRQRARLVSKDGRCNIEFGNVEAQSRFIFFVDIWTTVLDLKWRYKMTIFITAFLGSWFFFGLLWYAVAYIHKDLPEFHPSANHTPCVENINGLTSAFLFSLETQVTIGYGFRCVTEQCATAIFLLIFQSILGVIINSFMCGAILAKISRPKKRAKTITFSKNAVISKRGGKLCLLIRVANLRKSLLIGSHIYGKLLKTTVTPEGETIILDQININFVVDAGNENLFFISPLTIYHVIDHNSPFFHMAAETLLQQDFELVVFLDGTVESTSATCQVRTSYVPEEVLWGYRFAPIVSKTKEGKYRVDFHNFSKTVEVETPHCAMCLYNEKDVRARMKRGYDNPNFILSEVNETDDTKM
The assay is described as follows: Thallium Flux Assay (ROMK channel functional thallium flux assay, FLIPR-Tetra). The note with it: HEK293 cells stably expressing hROMK (hKir1.1); FluxOR thallium flux, 30 min compound incubation; concentration inhibiting 50% of ROMK thallium flux signal. The assay is classed as cell-based. How it is done: The following Thallium Flux Assay was performed on each of the final product compounds in the Examples.
HEK293 cells stably expressing hROMK (hKir1.1) were grown at 37° C. in a 10% CO2 humidified incubator in complete growth media: Dulbecco's Modified Eagle Medium supplemented with non-essential amino acids, Penicillin/Streptomycin/Glutamine, G418 and FBS. At >80% confluency, the media was aspirated from the flask and rinsed with 10 mL calcium/magnesium-free phosphate buffered saline (PBS). 5 mL of 1× trypsin (prepared in Ca/Mg Free PBS) was added to T-225 flask and the flask was returned to 37° C./CO2 incubator for 2-3 minutes. To dislodge the cells, the side of the flask was gently banged with one's hand. The cells were completely titrated and then the cells were transferred to 25 mL complete media, centrifuged at 1,500 rpm for 6 min followed by resuspension in complete growth media, and the cell concentration was determined. For typical re-seeding, 4E6 cells/T-225 flask will attain >80% confluency in 4 days. Under ideal growth conditions and appropriate tissue culture practices, this cell line is stable for 40-45 passages.
Compound Buffer (per microplate): 20 mL Probenecid/Assay Buffer; 0.3 mM ouabain (10 mM ouabain in water can be stored in amber bottle/aluminum foil at room temperature); Test compound
Stimulant Buffer (prepared at 5× final concentration in 1× FluxOR™Chloride-Free Buffer): 7.5 mM thallium sulfate and 0.75 mM potassium sulfate (to give a final assay concentration of 3 mM Thallium/0.3 mM potassium). Store at 4° C. when not in use. If kept sterile, this solution is good for months.
The ROMK channel functional thallium flux assay was performed in 384 wells, using the FLIPR-Tetra instrument. HEK-hKir1.1 cells were seeded in Poly-D-Lysine microplates and kept in a 37° C.-10% CO2 incubator overnight. On the day of the experiment, the growth media was replaced with the FluxOR™ reagent loading buffer and incubated, protected from light, at ambient temperature (23-25° C.) for 90 min. The loading buffer was replaced with assay buffer±test compound followed by 30 min incubation at ambient temperature, where the thallium/potassium stimulant was added to the microplate.
• 1. Seed HEK-hKir1.1 cells (50 μl at 20,000 cells/well) in 384-well PDL coated Microplates • 2. Allow cells to adhere overnight in humidified 37° C./10% CO2 incubator • 3. Completely remove cell growth media from microplate and replace with 25 μl loading buffer • 4. Incubate Microplate at room temperature, protected form light, for 90 min • 5. Remove loading buffer and replace with 25 μl 1× Assay Buffer±test compound. • 6. Incubate microplate at room temperature, protected from light, for 30 min • 7. At FLIPR-Tetra 384: Add stimulant (thallium/potassium) solution to microplate and monitor fluorescence. Excitation=400 nm, Emission=460 & 580 nm. Collect data for ˜10 min.
The fluorescence intensity of wells containing 3 μM of a standard control ROMK inhibitor of the present invention was used to define the ROMK-sensitive component of thallium flux. Fluorescence in the presence of test compounds was normalized to control values to provide % fluorescence change. IC50 values represent the concentration of compound that inhibited 50% of the ROMK thallium flux signal.
Usually IC50 stands for the concentration that gives 50% inhibition. Low readings indicate higher potency, high ones lower potency. Consider `OC(CN1CCC2(CC1)CCN(c1ccc3nncn3n1)C2)c1ccc(-n2cnnn2)nc1` (racemic) [Example 52], for which the IC50 amounted to 84 nM.

For the compound `Cc1c(C(O)CN2CCC3(CC2)CCN(c2ccc4nncn4n2)C3)ccc(C#N)c1F` (racemic) [Example 53], the IC50 is 18.7 nM. Against the preceding compound, the IC50 is about 4.5-fold lower.

Turning to `Cc1c(F)c(C#N)cc(F)c1C(O)CN1CCC2(CC1)CCN(c1ccc3nncn3n1)C2` (racemic) [Example 54, 4-(2-(2-([1,2,4]triazolo[4,3-b]pyridazin-6-yl)-2,8-diazaspiro[4.5]decan-8-yl)-1-hydroxyethyl)-2,5-difluoro-3-methylbenzonitrile], the IC50 was 35.9 nM. This IC50 is about 1.9-fold higher than that of the compound before.

As to `Cc1cc(C#N)c(F)cc1C(O)CN1CCC2(CC1)CCN(c1ccc3nncn3n1)C2` (racemic) [Example 55], the IC50 came out at 26 nM.

Compound `OC(CN1CCC2(CCN(c3ccc4nncn4n3)CC2)C1)c1ccc(-n2cnnn2)nc1` (racemic) [Example 69] displayed an IC50 of 72.6 nM.

`Cc1c([C@@H](O)CN2CCC3(CC2)CCN(c2nccn4nccc24)C3)ccc2c1COC2=O` [Example 1, (R)-5-(1-hydroxy-2-(2-(pyrazolo[1,5-α]pyrazin-4-yl)-2,8-diazaspiro[4.5]decan-8-yl)ethyl)-4-methylisobenzofuran-1(3H)-one] gave an IC50 of 745 nM.

The compound `Cc1c([C@@H](O)CN2CCC3(CC2)CCN(c2nc4cc(C#N)ccc4[nH]2)C3)ccc2c1COC2=O` [Example 2] gave an IC50 of 132 nM.

For `Cc1c([C@@H](O)CN2CCC3(CC2)CCN(c2nccn4cnnc24)C3)ccc2c1COC2=O` [Example 3], inhibition was half-maximal at 235 nM (IC50).

`Cc1c([C@@H](O)CN2CCC3(CC2)CCN(c2nc4cc(F)ccc4o2)C3)ccc2c1COC2=O` [Example 4] registered a half-inhibitory concentration (IC50) of 779 nM.

For the compound `Cc1c([C@@H](O)CN2CCC3(CC2)CCN(c2ccc4nncn4n2)C3)ccc2c1COC2=O` [Example 5, (R)-5-(2-(2-([1,2,4]triazolo[4,3-b]pyridazin-6-yl)-2,8-diazaspiro[4.5]decan-8-yl)-1-hydroxyethyl)-4-methylisobenzofuran-1 (3H)-one], the IC50 came to 74.7 nM.

Regarding `Cc1c([C@@H](O)CN2CCC3(CC2)CCN(c2nc4c(S(N)(=O)=O)cccc4s2)C3)ccc2c1COC2=O` [Example 6], half-maximal inhibition (IC50) was put at 304 nM.

Regarding `Cc1c([C@@H](O)CN2CCC3(CC2)CCN(C2=Nc4ccccc4C4=NCCN42)C3)ccc2c1COC2=O` [Example 7], inhibition was half-maximal at 620 nM (IC50).

`Cc1c([C@@H](O)CN2CCC3(CC2)CCN(c2ccn4nccc4n2)C3)ccc2c1COC2=O` [Example 8] displayed an IC50 of 246 nM.

With `Cc1c([C@@H](O)CN2CCC3(CC2)CCN(c2nn4cnnc4c4ccccc24)C3)ccc2c1COC2=O` [Example 9], the IC50 is 261 nM.

Turning to `Cc1c([C@@H](O)CN2CCC3(CC2)CCN(c2ccc4nnnn4n2)C3)ccc2c1COC2=O` [Example 10, (R)-5-(1-hydroxy-2-(2-(tetrazolo[1,5-b]pyridazin-6-yl)-2,8-diazaspiro[4.5]decan-8-yl)ethyl)-4-methylisobenzofuran-1(3H)-one], the IC50 was 12.8 nM.

In turn, `CSCc1nnc2ccc(N3CCC4(CCN(C[C@H](O)c5ccc6c(c5C)COC6=O)CC4)C3)nn12` [Example 11] displayed an IC50 of 47.7 nM.

With `Cc1c([C@@H](O)CN2CCC3(CC2)CCN(c2ccc4nnc(-c5ccco5)n4n2)C3)ccc2c1COC2=O` [Example 13], half-maximal inhibition (IC50) was put at 411 nM.

With `Cc1c([C@@H](O)CN2CCC3(CC2)CCN(c2ccc4nnc(C5CC5)n4n2)C3)ccc2c1COC2=O` [Example 14], the IC50 is 204 nM.

`Cc1c([C@@H](O)CN2CCC3(CC2)CCN(c2ccc4nnc(C(F)(F)F)n4n2)C3)ccc2c1COC2=O` [Example 15]: the midpoint of inhibition, the IC50, lay at 287 nM.

Compound `CCc1nnc2ccc(N3CCC4(CCN(C[C@H](O)c5ccc6c(c5C)COC6=O)CC4)C3)nn12` [Example 16] yielded an IC50 of 97.8 nM.

The compound `Cc1c([C@@H](O)CN2CCC3(CC2)CCN(c2ncc4c(C)n[nH]c4n2)C3)ccc2c1COC2=O` [Example 17] had an IC50 of 486 nM. This IC50 lies about 5-fold higher than the previous one.

In the case of `Cc1c([C@@H](O)CN2CCC3(CCCN(c4nccn5cnnc45)C3)C2)ccc2c1COC2=O` (some centres unmarked) [Example 18], half-maximal inhibition (IC50) was put at 339 nM.

The compound `Cc1c([C@@H](O)CN2CCC3(CC2)CCN(c2ccc4nnc(C)n4n2)C3)ccc2c1COC2=O` [Example 19] registered an IC50 of 74.7 nM.

Compound `COc1cc([C@@H](F)CN2CCC3(CC2)CCN(c2ccc4nncn4n2)C3)ncc1C#N` [Example 21] returned an IC50 of 236 nM.

Regarding `COc1cc([C@H](CN2CCC3(CC2)CCN(c2ccc4nncn4n2)C3)OC(=O)C2CC2)ncc1C#N` [Example 22], it took 212 nM to reach half-maximal inhibition (IC50).

Consider `COc1cc([C@H](CN2CCC3(CC2)CCN(c2ccc4nncn4n2)C3)OC(C)=O)ncc1C#N` [Example 23, (S)-2-(2-([1,2,4]triazolo[4,3-β]pyridazin-6-yl)-2,8-diazaspiro[4.5]decan-8-yl)-1-(5-cyano-4-methoxypyridin-2-yl)ethyl acetate], for which it took 108 nM to reach half-maximal inhibition (IC50).

`Cc1c([C@@H](O)CN2CCC3(CC2)CCN(c2cnc4nncn4c2)C3)ccc2c1COC2=O` [Example 24, (R)-5-(2-(2-([1,2,4]triazolo[4,3-a]pyrimidin-6-yl)-2,8-diazaspiro[4.5]decan-8-yl)-1-hydroxyethyl)-4-methylisobenzofuran-1(3H)-one] displayed an IC50 of 850 nM. Compared with the last compound, the IC50 is about 7.9-fold higher.

For `Cc1c([C@@H](O)CN2CCC3(CC2)CCN(c2ccc4nsnc4c2)C3)ccc2c1COC2=O` [Example 25, (R)-5-(2-(2-(benzo[c][1,2,5]thiadiazol-5-yl)-2,8-diazaspiro[4.5]decan-8-yl)-1-hydroxyethyl)-4-methylisobenzofuran-1 (3H)-one], the midpoint of inhibition, the IC50, lay at 342 nM.

Compound `COC1OC(=O)c2ccc(N3CCC4(CCN(C[C@H](O)c5ccc6c(c5C)COC6=O)CC4)C3)cc21` (stereo partly drawn) [Example 26, 5-((1R)-1-hydroxy-2-(2-(3-methoxy-1-oxo-1,3-dihydroisobenzofuran-5-yl)-2,8-diazaspiro[4.5]decan-8-yl)ethyl)-4-methylisobenzofuran-1(3H)-one] came in with an IC50 of 199 nM.

Compound `Cc1c([C@@H](O)CN2CCC3(CC2)CCN(c2snc4ncccc24)C3)ccc2c1COC2=O` [Example 27, (R)-5-(1-hydroxy-2-(2-(isothiazolo[3,4-b]pyridin-3-yl)-2,8-diazaspiro[4.5]decan-8-yl)ethyl)-4-methylisobenzofuran-1(3H)-one] gave an IC50 of 317 nM.

`Cc1c([C@@H](O)CN2CCC3(CC2)CCN(c2cc4cncnc4s2)C3)ccc2c1COC2=O` [Example 28, (R)-5-(1-Hydroxy-2-(2-(thieno[2,3-d]pyrimidin-6-yl)-2,8-diazaspiro[4.5]decan-8-yl)ethyl)-4-methylisobenzofuran-1 (3H)-one] returned an IC50 of 261 nM.

Compound `Cc1c([C@@H](O)CN2CCC3(CC2)CCN(c2cnc4snnc4c2)C3)ccc2c1COC2=O` [Example 29, (R)-5-(2-(2-([1,2,3]thiadiazolo[5,4-b]pyridin-6-yl)-2,8-diazaspiro[4.5]decan-8-yl)-1-hydroxyethyl)-4-methylisobenzofuran-1(3H)-one] showed an IC50 of 301 nM.

For the compound `Cc1c([C@@H](O)CN2CCC3(CC2)CCN(c2cnc4snnc4c2)C3=O)ccc2c1COC2=O` [Example 30], the IC50 turned out to be 83.2 nM.

Compound `Cc1c([C@@H](O)CN2CCC3(CC2)CCN(c2ccc4nsnc4c2)C3=O)ccc2c1COC2=O` [Example 31] came in with an IC50 of 267 nM.

For the compound `Cc1c([C@@H](O)CN2CCC3(CC2)CCN(c2cc4ccncc4s2)C3=O)ccc2c1COC2=O` [Example 32], inhibition was half-maximal at 48.8 nM (IC50). This IC50 lies about 5.5-fold lower than the previous one.
